Data reported in patent US6537986B2, “Oxazolidinone antibacterial agents having a thiocarbonyl funtionality” (Pharmacia & Upjohn Company, priority 1997, dated 2003).
Values after ≈ are worked out from the molar mass of the structure shown. Read-outs that look alike come from different tables or passages of the source.

Columns and labels:
E. Faecium (EFAE 12712) = assay: MIC, standard agar dilution method; type: cell-based; conditions: Enterococcus faecium; Table II; key: E. Faecium; agar dilution, Mueller Hinton agar, incubated overnight at 35° C.; read-out: EFAE 12712 MIC
Protocol: (§1) MIC Test Method The in vitro MICs of test compounds were determined by a standard agar dilution method. […] Serial 2-fold dilutions of each sample are made using 1.0 ml aliquots of sterile distilled water. To each 1.0 ml aliquot of drug is added 9 ml of molten Mueller Hinton agar medium. The drug-supplemented agar is mixed, poured into 15×100 mm petri dishes, and allowed to solidify and dry prior to inoculation. Vials of each of the test organisms are maintained frozen in the vapor phase of a liquid nitrogen freezer. Test cultures are grown overnight at 35° C. on the medium appropriate for the organism. Colonies are harvested with a sterile swab, and cell suspensions are prepared in Trypticase Soy broth (TSB) to equal the turbidity of a 0.5 McFarland standard. A 1:20 dilution of each suspension is made in TSB. […] The plates are incubated overnight at 35° C. Following incubation the Minimum Inhibitory Concentration (MIC μg/ml), the lowest concentration of drug that inhibits visible growth of the organism, is read and recorded.

[1] = test system: Enterococcus faecalis (EFAE 9217); assay: MIC, standard agar dilution method; type: cell-based; conditions: incubated overnight at 35° C.
Protocol: as §1

[2] = test system: Haemophilus influenzae (HINF 30063); assay: MIC, standard agar dilution method; type: cell-based; conditions: Haemophilus influenzae, Table II, Mueller Hinton agar, incubated overnight at 35° C.
Protocol: as §1

[3] = test system: Moraxella catarrhalis (MCAT 30610); assay: MIC, standard agar dilution method; type: cell-based; conditions: Moraxella catarrhalis, Table II, Mueller Hinton agar, incubated overnight at 35° C.
Protocol: as §1

S. aureus (SAUR 9213) = assay: MIC, standard agar dilution method; type: cell-based; conditions: Staphylococcus aureus, incubated overnight at 35° C.
Protocol: as §1

[4] = test system: S. epidermidis (SEPI 30593); assay: MIC, standard agar dilution method; type: cell-based; conditions: Staphylococcus epidermidis, Table II, Mueller Hinton agar, incubated overnight at 35° C.
Protocol: as §1

[5] = test system: S. pneumoniae (SPNE 9912); assay: MIC, standard agar dilution method; type: cell-based; conditions: Streptococcus pneumoniae, incubated overnight at 35° C.
Protocol: as §1

S. pyogenes (SPYO 152) = assay: MIC, standard agar dilution method; type: cell-based; conditions: Streptococcus pyogenes, incubated overnight at 35° C.
Protocol: as §1

[6] = test system: S. epidermidis (SEPI 12084); assay: MIC, standard agar dilution method; type: cell-based; conditions: Staphylococcus epidermidis, Table 1, Mueller Hinton agar, incubated overnight at 35° C., read-out: Oxazolidinone MIC Values (Gram+) SEPI 12084
Protocol: MIC Test Method The in vitro MICs of test compounds were determined by a standard agar dilution method. A stock drug solution of each analog is prepared in the preferred solvent, usually DMSO:H2O (1:3). Serial 2-fold dilutions of each sample are made using 1.0 ml aliquots of sterile distilled water. To each 1.0 ml aliquot of drug is added 9 ml of molten Mueller Hinton agar medium. The drug-supplemented agar is mixed, poured into 15×100 mm petri dishes, and allowed to solidify and dry prior to inoculation. Vials of each of the test organisms are maintained frozen in the vapor phase of a liquid nitrogen freezer. Test cultures are grown overnight at 35° C. on the medium appropriate for the organism. Colonies are harvested with a sterile swab, and cell suspensions are prepared in Trypticase Soy broth (TSB) to equal the turbidity of a 0.5 McFarland standard. A 1:20 dilution of each suspension is made in TSB. […] The plates are incubated overnight at 35° C. Following incubation the Minimum Inhibitory Concentration (MIC μg/ml), the lowest concentration of drug that inhibits visible growth of the organism, is read and recorded.

[7] = Enterococcus faecalis, Table 1, Mueller Hinton agar, read-out: Oxazolidinone MIC Values (Gram+) EFAE 9217
[8] = Table II, key: Enterococcus faecalis, Mueller Hinton agar, read-out: EFAE 9217 MIC
[9] = Table 1, Mueller Hinton agar, read-out: Oxazolidinone MIC Values (Gram+) SAUR 9213
[10] = Table II, Mueller Hinton agar, read-out: SAUR 9213 MIC
[11] = Table 1, Mueller Hinton agar, read-out: Oxazolidinone MIC Values (Gram+) SPNE 9912
[12] = Table II, Mueller Hinton agar, read-out: SPNE 9912 MIC
[13] = Table 1, Mueller Hinton agar, read-out: Oxazolidinone MIC Values (Gram+) SPYO 152
[14] = Table II, Mueller Hinton agar, read-out: SPYO 152 MIC

Structure (SMILES)	MIC (E. Faecium (EFAE 12712)) [mg/L]	MIC [1, 7] [mg/L]	MIC [1, 8] [mg/L]	MIC [2] [mg/L]	MIC [3] [mg/L]	MIC (S. aureus (SAUR 9213); [9]) [mg/L]	MIC (S. aureus (SAUR 9213); [10]) [mg/L]	MIC [4] [mg/L]	MIC [5, 11] [mg/L]	MIC [5, 12] [mg/L]	MIC (S. pyogenes (SPYO 152); [13]) [mg/L]	MIC (S. pyogenes (SPYO 152); [14]) [mg/L]	MIC [6] [mg/L]	melting point [°C]
CNC(=S)NC[C@H]1CN(c2ccc(N3CCOCC3)c(F)c2)C(=O)O1 [Example 6, (S)-N-[[3-[3-Fluoro-4-(4-morpholinyl)phenyl]-2-oxo-5-oxazolidinyl]methyl]-N′-methylthiourea]	2 (≈ 5.43 µM)	2 (≈ 5.43 µM)	2 (≈ 5.43 µM)	16 (≈ 43.4 µM)	8 (≈ 21.7 µM)	2 (≈ 5.43 µM)	2 (≈ 5.43 µM)	2 (≈ 5.43 µM)	0.5 (≈ 1.36 µM)	0.5 (≈ 1.36 µM)	1 (≈ 2.71 µM)	1 (≈ 2.71 µM)	1 (≈ 2.71 µM)	158 to 160
NC(=S)NC[C@H]1CN(c2ccc(N3CCOCC3)c(F)c2)C(=O)O1 [Example 5, (S)-N-[[3-[3-Fluoro-4-(4-morpholinyl)phenyl]-2-oxo-5-oxazolidinyl]methyl]thiourea]	0.5 (≈ 1.41 µM)	0.5 (≈ 1.41 µM)	0.5 (≈ 1.41 µM)	4 (≈ 11.3 µM)	2 (≈ 5.64 µM)	1 (≈ 2.82 µM)	1 (≈ 2.82 µM)	0.5 (≈ 1.41 µM)	< 0.125	< 0.125	0.25 (≈ 0.705 µM)	0.25 (≈ 0.705 µM)	0.25 (≈ 0.705 µM)	199 to 199.5
CC(=S)NC[C@H]1CN(c2ccc(N3CCN(c4nnc(C)s4)CC3)c(F)c2)C(=O)O1 [Example 2, (S)-N-[[3-[3-Fluoro-4-[4-(5-methyl-1,3,4-thiadiazol-2-yl)-1-piperazinyl]phenyl]-2-oxo-5-oxazolidinyl]methyl]thioacetamide]	8 (≈ 17.8 µM)	4 (≈ 8.88 µM)	4 (≈ 8.88 µM)	> 16	> 16	8 (≈ 17.8 µM)	8 (≈ 17.8 µM)	4 (≈ 8.88 µM)	2 (≈ 4.44 µM)	2 (≈ 4.44 µM)	4 (≈ 8.88 µM)	4 (≈ 8.88 µM)	2 (≈ 4.44 µM)	222 to 223
